In paper PMC10580313, “A Chemoproteomic Approach to Elucidate the Mechanism of Action of 6-Azasteroids with Unique Activity in Mycobacteria” (ACS Infectious Diseases, 2023):

Tests used:
Mtb CDC1551 = experiment: Intracellular ATP levels under BDQ cotreatment; conditions: 96 h
Mtb = experiment: MIC of 6-azasteroid alone, Mtb; type: cell-based, Mycobacterium tuberculosis; conditions: (MIC99 reported as micromolar)
THP-1 cells = experiment: Cytotoxicity assay (Alamar Blue), THP-1; type: cell-based; conditions: Homo sapiens, THP-1, 72 h, read-out: Mammalian Cell IC50, THP1
HepG2 cells = experiment: Cytotoxicity assay (Alamar Blue), HepG2; type: cell-based, human; conditions: Homo sapiens, HepG2, 72 h, read-out: Mammalian Cell IC50, HepG2
Mtb and Mm = experiment: BDQ potentiation MIC99 assay, species not given; type: cell-based; conditions: 6-azasteroid at 20 μM; species not stated
Mtb (CDC1551) [1] = experiment: ROS sensitivity (CellROX Green) with or without cumene hydroperoxide; type: cell-based, Mycobacterium tuberculosis
Mtb (CDC1551) [2] = test system: Mtb (CDC1551); design: method as in PMID 31012313; conditions: normoxic conditions; cited from earlier work
Mm (BAA-535) [3] = experiment: BDQ potentiation MIC99 microbroth assay, Mm; type: cell-based, Mycobacterium marinum; conditions: 6-azasteroid fixed at 20 μM; relative to BDQ MIC99 without azasteroid
Mtb (CDC1551) [4] = experiment: BDQ potentiation MIC99 microbroth assay, Mtb; type: cell-based, Mycobacterium tuberculosis; conditions: 6-azasteroid fixed at 20 μM; relative to BDQ MIC99 without azasteroid
Mm (BAA-535) [5] = test system: Mm (BAA-535); design: method as in PMID 31012313; conditions: normoxic conditions; cited from earlier work
[6] = test system: mammalian cells (HepG2 and THP-1); experiment: Cytotoxicity in mammalian cells, cell line not given; conditions: read-out: IC50 in mammalian cells

CCCN1CC2C3CCC(C(=O)Nc4cc(C(C)(C)C)ccc4C(C)(C)C)[C@@]3(C)CCC2[C@@]2(C)CCC(=O)C=C12 (stereo partly shown) [compound 2]
cellular ATP concentration in combination with BDQ, relative to BDQ treatment (Mtb CDC1551; 6-azasteroid 5 and 20 μM plus BDQ): less than 50%
ATP production, 6-azasteroid alone (Mtb CDC1551; 20 or 5 μM, no BDQ): not greatly affected
Mtb MIC Alone (Mtb): 37 µM
IC50 (THP-1 cells): 24 µM
IC50 (HepG2 cells): 21 µM
reduction in BDQ MIC99 (Mtb and Mm): greater than 8 fold
intracellular oxidants after exogenous CHP, 6-azasteroid pretreatment (Mtb (CDC1551) [1]; 20 μM pretreatment 6 h, then 5 mM CHP 30 min, versus not pretreated): greater accumulation of intracellular oxidants
effect on intracellular ROS levels, 6-azasteroid alone (Mtb (CDC1551) [1]; 20 μM, 6 h, no peroxide): negligible effect
potentiation of the activity of isoniazid and BDQ, Mtb (Mtb (CDC1551) [2]): 8 fold
Fold ∆ of BDQ MIC, Mm (Mm (BAA-535) [3]): 9 fold
Fold ∆ of BDQ MIC, Mtb (Mtb (CDC1551) [4]): 8 fold
potentiation of the activity of isoniazid and BDQ, Mm (Mm (BAA-535) [5]): 8 fold
IC50 [6]: 25 µM
